{
  "source": "paper PMC2659609",
  "about": "(Molecular cancer therapeutics, 2008)",
  "key": {"[1]": {"conditions": "mainly to albumin; cited from earlier work"}, "[2]": {"target": "thrombin (Bos taurus, UniProt P00735)", "assay": "Thrombin activity assay, chromogenic substrate pyroGlu-Pro-Arg-pNA, kinetic", "assay_type": "biochemical"}, "[3]": {"system": "human prostate cancer cell line LNCaP", "assay": "General cell cytotoxicity assay", "assay_type": "cell-based", "conditions": "20μM, 72 hours, media and compounds replaced every 24 hours"}, "[4]": {"system": "mouse prostate epithelial cell line MP-1", "assay": "General cell cytotoxicity assay", "assay_type": "cell-based", "conditions": "20μM, 72 hours, media and compounds replaced every 24 hours"}, "[5]": {"system": "human hepatoma cell line HepG2", "assay": "General cell cytotoxicity assay", "assay_type": "cell-based", "conditions": "20μM, 72 hours, media and compounds replaced every 24 hours"}, "[6]": {"target": "full-length wild-type mouse hepsin expressed in HEK 293FT cells (Mus musculus, UniProt O35453)", "sequence (O35453 1-416 isoform O35453-2)": "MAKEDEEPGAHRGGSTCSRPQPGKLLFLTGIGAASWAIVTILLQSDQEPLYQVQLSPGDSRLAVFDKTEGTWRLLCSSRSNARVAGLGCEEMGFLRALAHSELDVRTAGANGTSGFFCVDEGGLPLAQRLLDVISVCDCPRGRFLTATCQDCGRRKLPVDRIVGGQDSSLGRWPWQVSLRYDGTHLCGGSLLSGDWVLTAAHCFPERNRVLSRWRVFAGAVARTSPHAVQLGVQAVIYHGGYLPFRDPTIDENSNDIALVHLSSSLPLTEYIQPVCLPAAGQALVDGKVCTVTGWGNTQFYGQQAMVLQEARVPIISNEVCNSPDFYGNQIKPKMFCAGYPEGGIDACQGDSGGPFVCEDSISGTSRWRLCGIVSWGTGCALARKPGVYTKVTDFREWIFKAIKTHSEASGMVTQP", "assay": "Hepsin-dependent pericellular serine proteolytic activity assay", "assay_type": "cell-based"}, "[7]": {"conditions": "approximate; cited from earlier work"}, "[8]": {"system": "HEK 293FT cells", "assay": "Toxicity to HEK 293FT cells under pericellular assay conditions", "assay_type": "cell-based", "conditions": "24-hour treatment"}, "[9]": {"target": "purified recombinant human hepsin (Homo sapiens, UniProt P05981)", "sequence (P05981 46-417)": "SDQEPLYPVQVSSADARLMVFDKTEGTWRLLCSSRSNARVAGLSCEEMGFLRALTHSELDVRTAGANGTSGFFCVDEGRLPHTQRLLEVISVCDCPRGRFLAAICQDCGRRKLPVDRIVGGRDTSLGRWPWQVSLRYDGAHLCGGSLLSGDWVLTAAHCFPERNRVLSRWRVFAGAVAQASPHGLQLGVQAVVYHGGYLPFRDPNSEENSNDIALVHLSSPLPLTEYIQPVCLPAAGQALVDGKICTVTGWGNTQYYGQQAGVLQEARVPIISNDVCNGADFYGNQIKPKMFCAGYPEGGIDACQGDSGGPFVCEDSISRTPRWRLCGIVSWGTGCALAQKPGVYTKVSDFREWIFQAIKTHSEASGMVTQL", "assay": "Hepsin activity assay, chromogenic substrate pyroGlu-Pro-Arg-pNA, kinetic"}, "[10]": {"target": "trypsin (Sus scrofa, UniProt P00761)", "sequence (P00761 9-231)": "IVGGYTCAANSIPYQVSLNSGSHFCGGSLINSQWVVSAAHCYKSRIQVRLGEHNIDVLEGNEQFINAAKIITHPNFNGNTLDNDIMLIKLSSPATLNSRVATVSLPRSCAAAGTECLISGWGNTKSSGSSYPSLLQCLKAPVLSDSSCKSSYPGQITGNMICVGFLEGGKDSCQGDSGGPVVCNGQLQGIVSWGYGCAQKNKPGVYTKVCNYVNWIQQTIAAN", "assay": "Trypsin activity assay, chromogenic substrate pyroGlu-Pro-Arg-pNA, kinetic", "assay_type": "biochemical"}},
  "data": [
    {"smiles": "O=C1Nc2ccc(Cl)cc2[C@@](C#CC2CC2)(C(F)(F)F)O1", "note": "[efavirenz]", "values": [
      {"measurement": "protein bound in plasma", "setting": "[1]", "result": "more than 99%"}
    ]},
    {"smiles": "CC(C)(Sc1cc(C(C)(C)C)c(O)c(C(C)(C)C)c1)Sc1cc(C(C)(C)C)c(O)c(C(C)(C)C)c1", "note": "[Compound 14, probucol]", "values": [
      {"measurement": "IC50", "setting": "[2]", "result": "> 20", "unit": "µM"},
      {"measurement": "cytotoxicity to LNCaP cells", "setting": "[3]", "result": "limited or no cytotoxicity"},
      {"measurement": "cytotoxicity to MP-1 cells", "setting": "[4]", "result": "limited or no cytotoxicity"},
      {"measurement": "cytotoxicity to HepG2 cells", "setting": "[5]", "result": "limited or no cytotoxicity"},
      {"measurement": "attenuation of pericellular proteolytic activity (in words)", "setting": "[6]; 20 and 50μM, 24 hours", "result": "did not reduce"},
      {"measurement": "logP", "setting": "[7]", "result": "~10"}
    ]},
    {"smiles": "O=C1c2c(O)cccc2Cc2cccc(O)c21", "note": "[Compound 15, anthralin]", "values": [
      {"measurement": "IC50", "setting": "[2]", "result": "> 20", "unit": "µM"},
      {"measurement": "cytotoxicity to LNCaP cells", "setting": "[3]", "result": "toxic"},
      {"measurement": "cytotoxicity to MP-1 cells", "setting": "[4]", "result": "toxic"},
      {"measurement": "cytotoxicity to HepG2 cells", "setting": "[5]", "result": "toxic"},
      {"measurement": "toxicity to HEK 293FT cells", "setting": "[8]; 50μM", "result": "substantial toxicity"}
    ]},
    {"smiles": "Cl.NCCc1ccc(S(=O)(=O)F)cc1", "note": "[PEFAbloc]", "values": [
      {"measurement": "inhibition of hepsin proteolytic activity (in words)", "setting": "[9]; 4mM PEFAbloc, 30 minutes, 0.4nM hepsin", "result": "completely inhibited"}
    ]},
    {"smiles": "Oc1nc2cc(Cl)c(Cl)cc2nc1O", "note": "[Compound 16, 2,3-dihydroxy-6,7-dichloroquinoxaline]", "values": [
      {"measurement": "cytotoxicity to LNCaP cells", "setting": "[3]", "result": "limited or no cytotoxicity"},
      {"measurement": "cytotoxicity to MP-1 cells", "setting": "[4]", "result": "limited or no cytotoxicity"},
      {"measurement": "cytotoxicity to HepG2 cells", "setting": "[5]", "result": "limited or no cytotoxicity"}
    ]},
    {"smiles": "Cc1cccc(CN2CCN(C(c3ccccc3)c3ccc(Cl)cc3)CC2)c1", "note": "(stereo not shown) [Compound 13, meclizine]", "values": [
      {"measurement": "IC50", "setting": "[10]", "result": "> 20", "unit": "µM"},
      {"measurement": "IC50", "setting": "[2]", "result": "> 20", "unit": "µM"},
      {"measurement": "cytotoxicity to LNCaP cells", "setting": "[3]", "result": "limited or no cytotoxicity"},
      {"measurement": "cytotoxicity to MP-1 cells", "setting": "[4]", "result": "limited or no cytotoxicity"},
      {"measurement": "cytotoxicity to HepG2 cells", "setting": "[5]", "result": "limited or no cytotoxicity"},
      {"measurement": "overt toxicity to HEK 293FT cells / effect on hepsin expression levels", "setting": "[8]; 20 and 50μM", "result": "without substantially affecting hepsin expression levels or displaying overt toxicity"},
      {"measurement": "attenuation of pericellular proteolytic activity", "setting": "[6]; 50μM, normalized to hepsin expression level, relative to vehicle", "result": "~25", "unit": "%"},
      {"measurement": "equilibration time dependence of hepsin inhibition", "setting": "[9]", "result": "significantly increased with extended equilibration time"},
      {"measurement": "reversibility of hepsin inhibition by dilution", "setting": "[9]; inhibitor at its IC50, 1 hour at room temperature, then diluted", "result": "not reversible by dilution"}
    ]}
  ]
}
